From US20050131463A1, “Perfusion chamber for recording evoked and spontaneous electrical activity from submerged acute brain slices” (priority 2003, published 2005)

Test system: str. radiatum CA1 region of rat hippocampal slices (LTP)
Experiment: LTP test (40 Hz theta burst tetanization) in submerged hippocampal slices, field EPSP recording in multi-chamber device
Assay type: cell-based
Settings: 40 Hz×4×10 theta burst, p<0.01, 4 rats, 12 slices
Procedure: A twelve-chamber assembly of chambers according to the embodiment of the invention described in Example 1 is prepared for measurement of twelve slices simultaneously. Each chamber is prepared such that the top ends of the electrodes are placed 50 μm below the bottom net. Bipolar stimulation is utilized and the distance between electrodes is set to 100 μm. Such an assembly with fixed electrodes may be utilized for numerous experiments without readjustment of the electrodes. Individual chambers in the assembly may be replaced as necessary with new chambers. Electrophysiology experiments are performed on a 6-month old male rat. 400 μm hippocampal slices from the rat are prepared using a VIBROTOMETM (vibroslicer WPI; World Precision Instruments) to assure precise thickness. Slices were incubated for 2 hours at room temperature in a perfusion solution containing, in mM, 119 NaCl, 2.5 KCl, 2.5 CaCl2, 1.3 MgSO4, 1.25 NaH2PO4, 26.0 NaHCO3, 10 glucose and equilibrated with 95% O2 and 5% CO2 (pH 7.3-7.4) at room temperature. […] Simultaneous recording from the twelve slices is measured using electrophysiological software, […] […] 30 seconds after the single tetanus, baseline is continued to be collected as before and LTP was measured 60 minutes after tetanization. […] LOGEC 50 values are determined using Prizm4 software (Graphpad).

COc1ccc(C2CNC(=O)C2)cc1OC1CCCC1 (centres unmarked) [rolipram]
% of facilitation of the LTP 60 minutes after tetanic stimulation (rolipram 1 μM in perfusion fluid): significant
% of facilitation of the LTP 60 minutes after tetanic stimulation (rolipram 10 μM in perfusion fluid): significant
